From patent US20170066795A1, “SOLID PRODRUG FORMS OF 2'-CHLORO-2'-METHYL URIDINE FOR HCV” (IDENIX PHARMACEUTICALS LLC, priority 2014, published 2017)

Tested on: HCV
Test: Example 3 Parts I and II: antiviral activity across genotypes
Format: in vivo
Settings: HCV-infected subjects, 50-300 mg QD x 7 days
From the text: This part was a randomized, double-blind, placebo-controlled, parallel group study in treatment-naïve, Genotype 1 HCV-infected subjects. Thirty (30) subjects were randomized across the treatment arms specified below.
This part were a randomized, open-label, parallel group study in treatment-naïve, Genotype 2, 3, 4, 5 and 6 HCV-infected subjects. Thirty (30) subjects were randomized across the treatment arms specified below.
Dosing, sampling, and analyses for Parts I and II were made according to Tables A and B.

CC(C)OC(=O)[C@@H](C)N[P@@](=O)(OC[C@H]1O[C@@H](n2ccc(=O)[nH]c2=O)[C@](C)(Cl)[C@@H]1O)Oc1ccccc1 [Compound I]
antiviral activity across genotypes: potent pan-genotypic activity in a dose-dependent manner
